Measured values reported in patent US5491151A, “Antitumor treatment method” (Kabushiki Kaisha Hayashibara Seibutsu Kagaku Kenkyujo, priority 1989, dated 1996).

What was measured:
Acute toxicity (LD50) = assay type: in vivo; settings: mouse, in vivo, 7 days
Method: (§1) Either of Compounds No.1-8 in Table I was dissolved or suspended in saline containing 5% gum arabic, and a group of ddy mice, about 10-20 g each, received an intraperitoneal or oral administration of the resultant mixture occasionally through a stomach tube, followed by monitoring and counting dead mice for an additional 7 days to determine respective LD50 value in accordance with the Van der Waerden's method.

macrophage = assay: Activation of macrophage by cyanine dye (adherent ascites cells of treated mice cultured with Meth A ascitic tumor cells, 3H-thymidine incorporation); assay type: cell-based, BALB/c mice; settings: 50 ng/0.2 ml/animal intraperitoneal to mice, cells collected two days later
Method: Two days after the administration, the ascites of the mice were extracted, and the cells which adhered onto plastic Petri dish were collected.
Control group was intraperitoneally administered with 0.2 ml saline.
Thereafter, the incorporation of ^3 H-thymidine in the tumor cell was determined by conventional method, and the growth inhibitory rate for tumor (%) was calculated with the following equation.

ddy mice = assay: Acute toxicity (LD50); assay type: in vivo; settings: 7 days
Method: as §1

MC-1 cell = assay: Antitumor effect by growth inhibition of tumor (MC-1, with or without light-irradiation); assay type: in vivo, C57BL/6 mice; settings: for Mean wet weight of tumor: 27th day, * significant at 5% or lower; for Rate of survival (%): 35th day
Method: Compounds No.1, 7 and 8 in Table I were evaluated for their antitumor activity using as the criterion the growth inhibitory effect on MC-1 cell, a methylcholanthrene-induced syngenic tumor.
Eight week-old female C57BL/6 mice were subcutaneously transplanted in their dorsum area with 1×10^5 cells/animal of MC-1 cell. Five days after the transplantation, a group of seven mice with a successful transplantation were subcutaneously administered with either Compound No.1, 7 or 8 in Table I twice a week over a period of 25 days while monitoring the mice.
One another group of mice were light-irradiated with 100 W medical infrared lamp (100 V) placed about one meter in apart immediately after every administration of either Compound No.1, 7 or 8.
Control group was subcutaneously administered with 0.2 ml saline in accordance with the same administration schedule.
On the 27th day after the transplantation, the wet weight of tumor was determined by the method in Y. Shimosato and N. Tamaoki, Human Cancer and Nude mice, pp. 321-323, published by Ishiyaku Publishers Inc., Tokyo, Japan (1982), as well as monitoring the rate (%) of survivals on the 35th day.

Meth A ascitic tumor = assay: Synergistic effect by the combination with hyperthermia (growth inhibition of Meth A tumor); assay type: in vivo, BALB/c mice; settings: 20 ng/0.1 ml/animal s.c. twice a week; for Mean wet weight of tumor: 40th day; for Growth inhibitory rate for tumor (%): control = 100
Method: More particularly, 6 week-old BALB/c mice were subcutaneously transplanted in their femoral area with 2×10^5 cells/animal of Meth A cell. […] Immediately after every administration, the tumoral sites of the mice were soaked in about 42° C. water bath for about 60 minutes. On the 40th day after the transplantation, the mean wet weight of tumor was determined by the method in Experiment 2-2.
Separately, one of other groups was administered with either cyanine dye, and determined for its mean wet weight of tumor, while one another group was first administered with saline, then subjected to hyperthermia, followed by determining the mean wet weight of tumor.
Control group was subcutaneously injected with 0.1 ml saline in the femoral area.
The mean wet weights of tumor were put into the following equation to calculate the growth inhibitory rate for tumor (%) which was then used to evaluate any synergistic effect by the combination of cyanine dye and hyperthermia. [formula]

[1] = system: Meth A ascitic tumor cell; assay: Antitumor effect on tumor-bearing mouse (life-span increasing effect, Meth A ascitic tumor); assay type: in vivo, BALB/c mice; settings: for Mean survival days: i.p. twice a week over 40 days, * significant to control at 5% or lower; for Increase in life-span (T/C %) / Survivals after 40 days: i.p.; for Increase in life-span (T/C %): control = 100; for Survivals after 40 days: group of seven mice
Method: Compounds No.1, 7 and 8 in Table I were evaluated for their antitumor activity using as the criterion the life-span increasing effect on tumor-bearing mice which had received the transplantation of Meth A ascitic tumor cell.
More particularly, 8 week-old male BALB/c mice were intraperitoneally transplanted with 1×10^5 cells/mouse of Meth A cell. Ten days after the transplantation, a group of seven mice with a successful transplantation were intraperitoneally administered with either Compound No.1, 7 or 8 in Table I twice a week over a period of 40 days while monitoring the mice.
Control group was intraperitoneally administered with 0.2 ml saline in accordance with the same administration schedule.
The rate of increase in life-span (T/C %) under the above conditions was calculated from the mean survival days found for the test group (T) and control group (C). [formula]

[2] = ip, intraperitoneal administration
[3] = intraperitoneal administration, 10080 min
[4] = 0.5 ng/0.2 ml/animal s.c., combined with light-irradiation
[5] = 0.5 ng/0.2 ml/animal s.c., no light-irradiation
[6] = 5 ng/0.2 ml/animal s.c., combined with light-irradiation
[7] = 5 ng/0.2 ml/animal s.c., no light-irradiation
[8] = 50 ng/0.2 ml/animal s.c., combined with light-irradiation
[9] = 50 ng/0.2 ml/animal s.c., no light-irradiation

CN1C=CC(=CC=C(C=Cc2cc[n+](C)c3ccccc23)c2cc[n+](C)c3ccccc23)c2ccccc21 [compound 6]
LD50 at 168 h (Acute toxicity (LD50); [2]): 65 mg/kg
LD50 at 168 h (Acute toxicity (LD50); po, oral administration): ≥ 4000 mg/kg
Growth inhibitory rate (%) (macrophage): 41.8%

CCN1C=CC(=CC=C(C=Cc2cc[n+](CC)c3ccccc23)c2cc[n+](CC)c3ccccc23)c2ccccc21 [compound 5]
LD50 (ddy mice; [3]): 28 mg/kg body weight
LD50 (ddy mice; oral administration): ≥ 4.0 g/kg body weight
Growth inhibitory rate (%) (macrophage): 27.5%

CN1C(=CC=C(C=Cc2sc3ccccc3[n+]2C)c2sc3ccccc3[n+]2C)Sc2ccccc21 [Compound No.8]
LD50 at 168 h (Acute toxicity (LD50); [2]): 40 mg/kg
LD50 at 168 h (Acute toxicity (LD50); po, oral administration): ≥ 4000 mg/kg
Mean wet weight of tumor (MC-1 cell; [4]): 2.9 ± 0.7 g
Rate of survival (%) (MC-1 cell; [4]): 100%
Mean wet weight of tumor (MC-1 cell; [5]): 3.6 ± 0.4 g
Rate of survival (%) (MC-1 cell; [5]): 71.4%
Mean wet weight of tumor (MC-1 cell; [6]): 0.5 ± 0.5 g
Rate of survival (%) (MC-1 cell; [6]): 100%
Mean wet weight of tumor (MC-1 cell; [7]): 2.9 ± 0.9 g
Rate of survival (%) (MC-1 cell; [7]): 100%
Mean wet weight of tumor (MC-1 cell; [8]): 1.2 ± 0.2 g
Rate of survival (%) (MC-1 cell; [8]): 100%
Mean wet weight of tumor (MC-1 cell; [9]): 3.5 ± 0.5 g
Rate of survival (%) (MC-1 cell; [9]): 85.7%
Mean wet weight of tumor (Meth A ascitic tumor; combined with hyperthermia (about 42° C., 60 minutes)): 0.90 ± 0.66 g
Growth inhibitory rate for tumor (%) (Meth A ascitic tumor; combined with hyperthermia): 18.3%
Mean wet weight of tumor (Meth A ascitic tumor; no hyperthermia): 3.40 ± 1.38 g
Growth inhibitory rate for tumor (%) (Meth A ascitic tumor; no hyperthermia): 69.2%
Mean survival days ([1]; 0.5 ng/0.2 ml/animal): 34.4 ± 5.7 days
Increase in life-span (T/C %) ([1]; 0.5 ng/0.2 ml/animal): 116%
Survivals after 40 days ([1]; 0.5 ng/0.2 ml/animal): 1
Mean survival days ([1]; 5 ng/0.2 ml/animal): 49.3 ± 5.6 days
Increase in life-span (T/C %) ([1]; 5 ng/0.2 ml/animal): 167%
Survivals after 40 days ([1]; 5 ng/0.2 ml/animal): 7
Mean survival days ([1]; 50 ng/0.2 ml/animal): 43.7 ± 4.0 days
Increase in life-span (T/C %) ([1]; 50 ng/0.2 ml/animal): 148%
Survivals after 40 days ([1]; 50 ng/0.2 ml/animal): 6
Growth inhibitory rate (%) (macrophage): 27.3%

CCN1C=CC(=CC=C(C=Cc2cc[n+](CC)c3ccccc23)c2cc[n+](CC)c3ccccc23)c2ccccc21 [compound 2]
LD50 (ddy mice; [3]): 30 mg/kg body weight
LD50 (ddy mice; oral administration): ≥ 4.0 g/kg body weight
Growth inhibitory rate (%) (macrophage): 44.5%
